Experimental data: PubChem BioAssay (NCI)
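48-hour exposure; five concentrations; linearly interpolated endpoints. GI50 is the concentration that inhibits growth by half. TGI is the concentration that stops growth completely.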 Where a SMILES comes first, the peptide text is derived from it.

Tests used:
Assay in all cases: NCI anticancer screen, dose series, 48 h
BT-549 breast = test system: BT-549 breast
PC-3 prostate = test system: PC-3 prostate
HOP-62 NSCLC = test system: HOP-62 NSCLC
MDA-MB-435 = test system: MDA-MB-435
M14 melanoma = test system: M14 melanoma
HCT-15 colon = test system: HCT-15 colon
SF-539 CNS = test system: SF-539 CNS
SK-MEL-5 melanoma = test system: SK-MEL-5 melanoma
OVCAR-8 ovarian = test system: OVCAR-8 ovarian
HCT-116 colon = test system: HCT-116 colon

Compound	TGI (BT-549 breast)	TGI (PC-3 prostate)	TGI (HOP-62 NSCLC)	TGI (MDA-MB-435)	TGI (M14 melanoma)	TGI (HCT-15 colon)	TGI (SF-539 CNS)	TGI (SK-MEL-5 melanoma)	TGI (OVCAR-8 ovarian)	TGI (HCT-116 colon)	GI50 (BT-549 breast)	GI50 (PC-3 prostate)	GI50 (HOP-62 NSCLC)	GI50 (MDA-MB-435)	GI50 (M14 melanoma)	GI50 (HCT-15 colon)	GI50 (SF-539 CNS)	GI50 (SK-MEL-5 melanoma)	GI50 (OVCAR-8 ovarian)	GI50 (HCT-116 colon)
O=C(N/N=C/c1ccccc1O)c1ccccc1Nc1ccccc1C(=O)N/N=C/c1ccccc1O	> 100 µM	> 100 µM	> 20.7 µM	> 30.7 µM	6.35 µM	> 100 µM	> 100 µM	8.15 µM	11.7 µM	3.5 µM										
CC(C)(C)c1cc(OCc2nnc3sc(=S)[nH]n23)c(Cl)cc1OCc1nnc2sc(=S)[nH]n12	> 100 µM	> 100 µM	> 100 µM	55.1 µM	75.7 µM	> 100 µM	> 100 µM	29.5 µM	> 100 µM	50.6 µM										
O=C(O)CN1CCN(CC(=O)N2CCN(C(=O)OCc3ccccc3)CC2)CCN(CC(=O)O)CCN(CC(=O)N2CCN(C(=O)OCc3ccccc3)CC2)CC1	> 100 µM	> 100 µM	> 100 µM	> 100 µM	> 100 µM	> 100 µM	> 100 µM	> 100 µM	> 100 µM	> 100 µM										
COc1cc(Nc2nnc3n2S(=O)(=O)c2cc(C)c(Cl)cc2S3)cc(OC)c1	22.1 µM	47 µM	26.7 µM	> 100 µM	> 100 µM	> 100 µM	6.31 µM	68.7 µM	81.1 µM	> 100 µM										
O=c1c2cc(Cl)ccc2[nH]c2cc(O)cc(O)c12	> 10 µM	> 10 µM	> 10 µM	> 10 µM	> 10 µM	> 10 µM	> 10 µM	> 10 µM	> 10 µM	> 10 µM										
SCc1ccc(CS)s1	> 100 µM	> 100 µM	> 100 µM	> 100 µM	> 100 µM	> 100 µM	> 100 µM	> 100 µM	> 100 µM	> 100 µM										
O=C(Cc1nc2ncccc2[nH]c1=O)c1c[nH]c2ccccc12	62 µM	29.9 µM	36.9 µM	30.7 µM	43.1 µM	95.8 µM	31.5 µM	73 µM	81.1 µM	49 µM										
CC(C)CC(NC(=O)C(Cc1ccccc1)NC(=O)C(Cc1c[nH]c2ccccc12)NC(=O)CNC(=O)C(N)Cc1ccc(O)cc1)C(=O)O (stereo not given) (H-YGWFL-OH; configuration not given here)	> 100 µM	> 100 µM	> 100 µM	> 100 µM	> 100 µM	> 100 µM	87 µM	> 100 µM	> 100 µM	70.6 µM										
N#Cc1c(O)cc(=O)n2c1[nH]c1ccccc12	> 100 µM	> 100 µM	> 100 µM	> 100 µM	> 100 µM	> 100 µM	> 100 µM	> 100 µM	> 100 µM	> 100 µM										
C=CC(Br)(CBr)CCC(Br)C(C)(C)Cl (stereo not given)	21.8 µM	9.1 µM	7.87 µM	5.82 µM	14.6 µM	6.53 µM	3.78 µM	23.4 µM	10.2 µM	3.4 µM										
Oc1cccc2cc(Br)cnc12	> 100 µM	> 100 µM	> 100 µM	> 100 µM	51.8 µM	> 100 µM	57.3 µM	48.1 µM	> 100 µM	> 42.7 µM										
CCCCCCCCCCCCOc1ccc(/C=C/C2=[N+](CCCl)CCO2)cc1	> 100 µM	> 100 µM	> 100 µM	> 100 µM	> 100 µM	> 100 µM	> 100 µM	> 100 µM	> 100 µM	33.5 µM										
Cc1ccc(N=NN(C)C(=O)C(C)N)cc1 (stereo not given)	> 100 µM	> 100 µM	> 100 µM	> 100 µM	> 100 µM	> 100 µM	> 100 µM	> 100 µM	> 100 µM	> 100 µM										
CCN(CC)/[N+]([O-])=N/OCOC(C)=O	> 100 µM	> 100 µM	> 100 µM	> 100 µM	> 100 µM	> 100 µM	> 100 µM	> 100 µM	> 100 µM	> 100 µM										
NC(=O)C(=O)C(c1ccccc1)S(=O)(=O)Cc1ccccc1 (stereo not given)	> 100 µM	> 100 µM	> 100 µM	> 100 µM	> 100 µM	> 100 µM	> 100 µM	> 100 µM	> 100 µM	> 100 µM										
COc1cc(-c2n/c(=C\c3c(O)[nH]c4cc(Cl)ccc34)cc3c2=Nc2ccccc2-3)cc(OC)c1OC	5.12 µM	58.4 µM	5.73 µM	51.3 µM	5.66 µM	> 100 µM	30.8 µM	23 µM	29.2 µM	13.7 µM	2.25 µM	4.59 µM	2.64 µM	6.39 µM	2.41 µM	30.9 µM	11.2 µM	3.98 µM	4.6 µM	3.48 µM
COC(=O)[C@]1(c2cc3ccccc3[nH]2)CC2CN(CC(=O)N(C)OC)C1CC2(OC)OC (stereo not given in full)	59.8 µM	71.9 µM	> 100 µM	91.3 µM	> 100 µM	> 100 µM	> 100 µM	> 100 µM	> 100 µM	70.7 µM										
